Measurements as given in US9365562B2, “1,3 substituted azetidine PDE10 inhibitors” (Merck Sharp & Dohme Corp., priority 2011, dated 2016).

Target: human PDE10A2 (Homo sapiens (Human), UniProt Q9Y233)
Assay: PDE10 fluorescence polarization (IMAP FP) inhibition assay
Type: biochemical
Settings: apparent inhibition constant, FAM-labeled cAMP substrate 50 nM, room temperature
Method in brief: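 Cytoplasmic lysate of AD293 cells transiently expressing human PDE10A2, enzyme preincubated 60 min at room temperature with compounds (1% DMSO), then 50 nM FAM-cAMP added for 60 min. Buffer 10 mM Tris HCl pH 7.2, 10 mM MgCl2, 1 mM DTT; IMAP binding reagent stop, FP read after ≥1 h.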

Sequence of human PDE10A2 (Q9Y233 267-1055): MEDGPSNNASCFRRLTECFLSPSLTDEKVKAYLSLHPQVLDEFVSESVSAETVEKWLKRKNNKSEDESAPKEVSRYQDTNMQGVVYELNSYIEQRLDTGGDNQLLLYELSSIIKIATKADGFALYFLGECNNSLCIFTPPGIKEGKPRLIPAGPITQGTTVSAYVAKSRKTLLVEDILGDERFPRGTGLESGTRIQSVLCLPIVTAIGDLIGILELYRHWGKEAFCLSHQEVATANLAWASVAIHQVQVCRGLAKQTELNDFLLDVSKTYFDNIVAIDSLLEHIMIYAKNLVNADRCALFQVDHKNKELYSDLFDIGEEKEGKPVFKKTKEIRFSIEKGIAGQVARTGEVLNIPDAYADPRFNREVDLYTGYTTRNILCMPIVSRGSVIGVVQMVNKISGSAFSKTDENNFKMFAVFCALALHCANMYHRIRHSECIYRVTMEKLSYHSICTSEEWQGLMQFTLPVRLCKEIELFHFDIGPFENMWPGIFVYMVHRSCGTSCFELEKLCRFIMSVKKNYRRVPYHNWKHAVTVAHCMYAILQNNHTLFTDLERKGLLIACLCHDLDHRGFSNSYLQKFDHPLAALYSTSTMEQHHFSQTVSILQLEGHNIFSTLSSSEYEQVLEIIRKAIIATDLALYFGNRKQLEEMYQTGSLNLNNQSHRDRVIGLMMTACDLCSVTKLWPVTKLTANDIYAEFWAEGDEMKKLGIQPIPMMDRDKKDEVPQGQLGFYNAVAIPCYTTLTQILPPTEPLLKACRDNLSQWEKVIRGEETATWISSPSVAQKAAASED

SMILES	Ki [nM]
Cc1nc(-c2ccc(Cl)cn2)cc(N2CC(c3nc4ccccc4n3C)C2)n1 [Example 99, 2-(1-(6-(5-chloropyridin-2-yl)-2-methylpyrimidin-4-yl)azetidin-3-yl)-1-methyl-1H-benzo[d]imidazole]	1.1
COc1cccnc1-c1cc(N2CC(c3nc4ccccc4n3C)C2)nc(C)n1 [Example 100, 2-(1-(6-(3-methoxypyridin-2-yl)-2-methylpyrimidin-4-yl)azetidin-3-yl)-1-methyl-1H-benzo[d]imidazole]	41
CC(=O)c1ccnc(-c2cc(N3CC(c4nc5ccccc5n4C)C3)nc(C)n2)c1 [Example 101, 1-(2-(2-methyl-6-(3-(1-methyl-1H-benzo[d]imidazol-2-yl)azetidin-1-yl)pyrimidin-4-yl)pyridin-4-yl)ethanone]	31
CC(=O)c1ccc(-c2cc(N3CC(c4nc5ccccc5n4C)C3)nc(C)n2)nc1 [Example 102, 1-(6-(2-methyl-6-(3-(1-methyl-1H-benzo[d]imidazol-2-yl)azetidin-1-yl)pyrimidin-4-yl)pyridin-3-yl)ethanone]	9
Cc1nc(-c2ccc(C#N)cn2)cc(N2CC(c3nc4ccccc4n3C)C2)n1 [Example 103, 6-(2-methyl-6-(3-(1-methyl-1H-benzo[d]imidazol-2-yl)azetidin-1-yl)pyrimidin-4-yl)nicotinonitrile]	2.4
Cc1nc(-c2ncco2)cc(N2CC(c3nc4ccccc4n3C)C2)n1 [Example 104, 2-(2-methyl-6-(3-(1-methyl-1H-benzo[d]imidazol-2-yl)azetidin-1-yl)pyrimidin-4-yl)oxazole]	20
Cc1nc(-c2nccs2)cc(N2CC(c3nc4ccccc4n3C)C2)n1 [Example 105, 2-(2-methyl-6-(3-(1-methyl-1H-benzo[d]imidazol-2-yl)azetidin-1-yl)pyrimidin-4-yl)thiazole]	2.2
Cc1nc(-c2cccnn2)cc(N2CC(c3nc4ccccc4n3C)C2)n1 [Example 106, 1-methyl-2-{1-[2-methyl-6-(pyridazin-3-yl)pyrimidin-4-yl]azetidin-3-yl}-1H-benzimidazole]	11
Cc1nc(N2CC(c3nc4ccccc4[nH]3)C2)cc(-n2nc(C)nc2C)n1 [Example 107, 2-(1-(6-(3,5-Dimethyl-1H-1,2,4-triazol-1-yl)-2-methylpyrimidin-4-yl)azetidin-3-yl)-1H-benzo[d]imidazole]	5.8
Cc1nc(N2CC(c3nc4cccc(F)c4[nH]3)C2)cc(-n2nc(C)nc2C)n1 [Example 108, 2-(1-(6-(3,5-dimethyl-1H-1,2,4-triazol-1-yl)-2-methylpyrimidin-4-yl)azetidin-3-yl)-7-fluoro-1H-benzo[d]imidazole]	19

The remaining lines, values ahead:

Ki [nM]	SMILES
8	Cc1nc(N2CC(c3nc4ccc(F)cc4[nH]3)C2)cc(-n2nc(C)nc2C)n1 [Example 109, 2-(1-(6-(3,5-dimethyl-1H-1,2,4-triazol-1-yl)-2-methylpyrimidin-4-yl)azetidin-3-yl)-6-fluoro-1H-benzo[d]imidazole]
17	Cc1nc(N2CC(c3nc4cccc(C)c4[nH]3)C2)cc(-n2nc(C)nc2C)n1 [Example 110, 2-(1-(6-(3,5-dimethyl-1H-1,2,4-triazol-1-yl)-2-methylpyrimidin-4-yl)azetidin-3-yl)-7-methyl-1H-benzo[d]imidazole]
39	Cc1ccc2nc(C3CN(c4cc(-n5nc(C)nc5C)nc(C)n4)C3)[nH]c2c1 [Example 111, 2-(1-(6-(3,5-dimethyl-1H-1,2,4-triazol-1-yl)-2-methylpyrimidin-4-yl)azetidin-3-yl)-6-methyl-1H-benzo[d]imidazole]
> 75	Cc1nc(N2CC(c3nc4cccc(C(F)(F)F)c4[nH]3)C2)cc(-n2nc(C)nc2C)n1 [Example 112, 2-(1-(6-(3,5-dimethyl-1H-1,2,4-triazol-1-yl)-2-methylpyrimidin-4-yl)azetidin-3-yl)-7-(trifluoromethyl)-1H-benzo[d]imidazole]
> 75	Cc1nc(N2CC(c3nc4ccc(C(F)(F)F)cc4[nH]3)C2)cc(-n2nc(C)nc2C)n1 [Example 113, 2-(1-(6-(3,5-dimethyl-1H-1,2,4-triazol-1-yl)-2-methylpyrimidin-4-yl)azetidin-3-yl)-6-(trifluoromethyl)-1H-benzo[d]imidazole]
5.9	CCn1c(C2CN(c3cc(-n4nc(C)nc4C)nc(C)n3)C2)nc2ccccc21 [Example 114, 2-(1-(6-(3,5-Dimethyl-1H-1,2,4-triazol-1-yl)-2-methylpyrimidin-4-yl)azetidin-3-yl)-1-ethyl-1H-benzo[d]imidazole]
14	Cc1nc(N2CC(c3nc4ccccc4n3CC#N)C2)cc(-n2nc(C)nc2C)n1 [Example 115, 2-(2-(1-(6-(3,5-dimethyl-1H-1,2,4-triazol-1-yl)-2-methylpyrimidin-4-yl)azetidin-3-yl)-1H-benzo[d]imidazol-1-yl)acetonitrile]
6.2	Cc1nc(N2CC(c3nc4ccccc4n3CCF)C2)cc(-n2nc(C)nc2C)n1 [Example 116, 2-(1-(6-(3,5-dimethyl-1H-1,2,4-triazol-1-yl)-2-methylpyrimidin-4-yl)azetidin-3-yl)-1-(2-fluoroethyl)-1H-benzo[d]imidazole]
6.6	Cc1nc(N2CC(c3nc4ccccc4n3CCO)C2)cc(-n2nc(C)nc2C)n1 [Example 117, 2-(2-(1-(6-(3,5-dimethyl-1H-1,2,4-triazol-1-yl)-2-methylpyrimidin-4-yl)azetidin-3-yl)-1H-benzo[d]imidazol-1-yl)ethanol]
13	CCCn1c(C2CN(c3cc(-n4nc(C)nc4C)nc(C)n3)C2)nc2ccccc21 [Example 118, 2-(1-(6-(3,5-dimethyl-1H-1,2,4-triazol-1-yl)-2-methylpyrimidin-4-yl)azetidin-3-yl)-1-propyl-1H-benzo[d]imidazole]
5	Cc1nc(N2CC(c3nc4ccccc4n3CCC#N)C2)cc(-n2nc(C)nc2C)n1 [Example 119, 3-(2-(1-(6-(3,5-dimethyl-1H-1,2,4-triazol-1-yl)-2-methylpyrimidin-4-yl)azetidin-3-yl)-1H-benzo[d]imidazol-1-yl)propanenitrile]
8.5	CCOCCn1c(C2CN(c3cc(-n4nc(C)nc4C)nc(C)n3)C2)nc2ccccc21 [Example 120, 2-(1-(6-(3,5-dimethyl-1H-1,2,4-triazol-1-yl)-2-methylpyrimidin-4-yl)azetidin-3-yl)-1-(2-ethoxyethyl)-1H-benzo[d]imidazole]
9.5	Cc1nc(N2CC(c3nc4ccccc4n3CCCC#N)C2)cc(-n2nc(C)nc2C)n1 [Example 121, 4-(2-(1-(6-(3,5-dimethyl-1H-1,2,4-triazol-1-yl)-2-methylpyrimidin-4-yl)azetidin-3-yl)-1H-benzo[d]imidazol-1-yl)butanenitrile]
17	Cc1nc(N2CC(c3nc4c(F)cccc4n3C)C2)cc(-n2nc(C)nc2C)n1 [Example 122, 2-(1-(6-(3,5-dimethyl-1H-1,2,4-triazol-1-yl)-2-methylpyrimidin-4-yl)azetidin-3-yl)-4-fluoro-1-methyl-1H-benzo[d]imidazole]
7.1	Cc1nc(N2CC(c3nc4cccc(F)c4n3C)C2)cc(-n2nc(C)nc2C)n1 [Example 123, 2-(1-(6-(3,5-dimethyl-1H-1,2,4-triazol-1-yl)-2-methylpyrimidin-4-yl)azetidin-3-yl)-7-fluoro-1-methyl-1H-benzo[d]imidazole]
